Data taken from patent US20230136297A1, “Methods Of Treating Fabry Disease In Patients Having A Mutation In The GLA Gene” (Amicus Therapeutics, Inc., priority 2020, published 2023).
Where a chain is given by its changes, count along the chain named.

Assays:
Assay in all cases: α-Gal A activity in lysates of transfected HEK-293 cells ± migalastat (HEK assay)
Assay type in all cases: cell-based
[1] = biological target: T1, α-Gal A mutant form G271A (Homo sapiens, UniProt P06280, G271A)
T1 construct: expressed in transfected cells; host or cells: HEK-293
T1 sequence (P06280 32-429 G271A): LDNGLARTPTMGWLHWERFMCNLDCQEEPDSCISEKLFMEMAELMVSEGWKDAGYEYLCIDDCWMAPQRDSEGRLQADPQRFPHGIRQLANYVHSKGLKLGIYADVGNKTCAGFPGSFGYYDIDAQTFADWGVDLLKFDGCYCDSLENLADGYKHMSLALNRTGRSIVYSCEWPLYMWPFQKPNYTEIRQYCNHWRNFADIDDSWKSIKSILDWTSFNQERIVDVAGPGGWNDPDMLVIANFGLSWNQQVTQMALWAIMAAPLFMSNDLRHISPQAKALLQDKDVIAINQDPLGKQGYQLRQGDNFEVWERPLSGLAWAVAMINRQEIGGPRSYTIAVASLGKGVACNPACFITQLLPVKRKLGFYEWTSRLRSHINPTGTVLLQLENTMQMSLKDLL
Summary of the method: (§1)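 Activity is reported as nmol of free 4-MU released per mg protein per hour (nmol/mg/hr).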

[2] = biological target: T2, α-Gal A mutant form L310V (Homo sapiens, UniProt P06280, L310V)
T2 construct: expressed in transfected cells; host or cells: HEK-293
T2 sequence (P06280 32-429 L310V): T1 sequence (P06280 32-429 G271A) with A240G, L279V
Summary of the method: as §1

[3] = biological target: T3, α-Gal A mutant form N419D (Homo sapiens, UniProt P06280, N419D)
T3 construct: expressed in transfected cells; host or cells: HEK-293
T3 sequence (P06280 32-429 N419D): T1 sequence (P06280 32-429 G271A) with A240G, N388D
Summary of the method: as §1

α-Gal A mutant form R38S = biological target: T4, α-Gal A mutant form R38S (Homo sapiens, UniProt P06280, R38S)
T4 construct: expressed in transfected cells; host or cells: HEK-293
T4 sequence (P06280 32-429 R38S): T1 sequence (P06280 32-429 G271A) with R7S, A240G
Summary of the method: as §1

[4] = biological target: T5, α-Gal A mutant form W209R (Homo sapiens, UniProt P06280, W209R)
T5 construct: expressed in transfected cells; host or cells: HEK-293
T5 sequence (P06280 32-429 W209R): T1 sequence (P06280 32-429 G271A) with W178R, A240G
Summary of the method: as §1

[5] = 10 μM migalastat minus baseline
[6] = HEK-293 lysates, 10 μM migalastat 5 days, mean ± SEM

Absolute increase (% WT) [1, 5]: 34.4 % WT
Relative increase ([1]; 10 μM migalastat ÷ baseline): 3.87
10 μM migalastat α-Gal A activity [1, 6]: 18928 ± 1069 nmol/mg/h
10 μM migalastat α-Gal A activity (% WT) [1, 6]: 46.4 ± 1.8 % WT
Absolute increase (% WT) [2, 5]: 22.8 % WT
Relative increase ([2]; 10 μM migalastat ÷ baseline): 1.37
10 μM migalastat α-Gal A activity [2, 6]: 31936 ± 2527 nmol/mg/h
10 μM migalastat α-Gal A activity (% WT) [2, 6]: 78.4 ± 4.8 % WT
Absolute increase (% WT) [3, 5]: 12.6 % WT
Relative increase ([3]; 10 μM migalastat ÷ baseline): 1.37
10 μM migalastat α-Gal A activity [3, 6]: 14558 ± 678 nmol/mg/h
10 μM migalastat α-Gal A activity (% WT) [3, 6]: 44.1 ± 2.9 % WT
Absolute increase (% WT) (α-Gal A mutant form R38S; [5]): 26.6 % WT
Relative increase (α-Gal A mutant form R38S; 10 μM migalastat ÷ baseline): 1.29
10 μM migalastat α-Gal A activity (α-Gal A mutant form R38S; [6]): 30928 ± 1484 nmol/mg/h
10 μM migalastat α-Gal A activity (% WT) (α-Gal A mutant form R38S; [6]): 100 ± 9.3 % WT
Absolute increase (% WT) [4, 5]: 17.5 % WT
Relative increase ([4]; 10 μM migalastat ÷ baseline): 1.25
10 μM migalastat α-Gal A activity [4, 6]: 28729 ± 1293 nmol/mg/h
10 μM migalastat α-Gal A activity (% WT) [4, 6]: 81.1 ± 4.6 % WT
SMILES: OC[C@H]1NC[C@H](O)[C@@H](O)[C@H]1O [migalastat, (2R,3S,4R,5S)-2-(hydroxymethyl) piperdine-3,4,5-triol]
